Reference: patent US5998437A, “Benzimidazole derivatives” (Otsuka Pharmaceutical Co., Ltd., priority 1995, dated 1999)

Tests used:
cGMP-PDE = target: T1, cGMP-PDE (Homo sapiens, UniProt O76074); assay: Activity for inhibiting cGMP PDE (PDE partially purified from human platelets, FI fraction); format: biochemical; conditions: 0.4 μM of [3H]-cGMP
T1 construct: Separation and partial purification of PDE (phosphodiesterase) from human platelets; from tissue; host or cells: human platelets (supernatant, DEAE-cellulose FI fraction)
Protocol: (1) Measurement of the Activity for Inhibiting cGMP PDE
Separation and partial purification of PDE (phosphodiesterase) from human platelets, and measurement of the activity for inhibiting cGMP PDE were conducted by the method of Hidaka, et al. [Biochimica et Biophysica Acta, Vol. 429, (1976), pp. 485-497]. The platelets obtained from human healthy adult were washed, and suspended in TRIS-buffer solution, then said suspension was treated by centrifugal separation, the supernatant was subjected to a DEAE-cellulose treatment and fractionated into FI to FIII fractions by a method of concentration gradient of sodium acetate. Thus obtained FI fraction was used as the sample of cGMP-PDE. The activity for inhibiting cGMP-PDE was measured by using 0.4 μM of [^3 H]-cGMP.

T cells = assay: Activity for inhibiting proliferation of the T cells (mouse spleen cells, Concanavaline A); format: cell-based, Balb/c strain male mouse; conditions: T-cell, 2 days, then [3H] thymidine overnight
Protocol: (4) Measurement of the Activity for Inhibiting Proliferation of the T Cells
Test was conducted by the method as disclosed in "Current Protocol in Immunology" [Edited by Coligan, et al., (1991)] Chapter 3, page 12 (Published from Willy Interscience, Inc.). After sacrificed a Balb/c strain male mouse, the spleen was enucleated and a suspension of the spleen cells in RPMI-1640 culture medium was prepared. Said suspension was filtered through a nylon fiber mesh, and subjected to a centrifugal separation (1,200 rpm, for 5 minutes), there were added on pellet 5 ml of 0.15 M ammonium chloride, 10 mM potassium hydrogencarbonate, and 0.1 mM disodium salt of EDTA (pH 7.2) per one spleen so as to suspend the cells, and the suspension was incubated at 37° C. for 5 minutes. […] After counted the number of cells by using a hemacytometer, a suspension containing cell density of 10^6 /ml was prepared by diluting with RPMI-10 culture medium. […]
20 μCi/ml of [methyl-^3 H] thymidine was added in an amount of 10 μl/well, after further incubated overnight, by using a cell harvester the cells were recovered on the filter of the harvester. The filter was cut out from the cell harvester and put in a vial, then 5 ml of a scintillation cocktail (ACS-II) was added, and measured by using a liquid scintillation counter. […]

[1] = test system: chronic contactive dermatitis; assay: Activity for inhibiting chronic contactive dermatitis (TNCB, ear pinna); format: in vivo, Balb/c strain male mouse; conditions: for Thickness of ear pinna (×10 μm): control 137.1 ± 6.2, 8 animals; for Inhibition rate (%): ear pinna thickness
Protocol: (5) Determination of the Activity for Inhibiting Chronic Contactive Dermatitis
The activity for inhibiting chronic contactive dermatitis [J. Dermatol. Sci., Vol. 8, (1994), page 54] which is analogous to atopic dermatitis being reported by Kitagaki, et al. was discussed by using the method as follows. The right-side ear pinna of Balb/c strain male mouse was subjected to antigen sensitization by coating with 20 μl of acetone solution of 1% trinitrochlorobenzene (TNCB). 7 Days after the antigen sensitization, the same right-side pinna was subjected to antigen induction by coating with 20 μl of 1% TNCB acetone solution. The treatment of antigen induction was repeated in every 2 days so as to induced chronic contactive dermatitis. In this test, increase of thickness of the right-side ear pinna was induced by passing into a chronic state of the contactive dermatitis. The test compound was dissolved in acetone-methanol (4:1 by v/v) and 20 μl of this solution was administered by coating on the right-side of ear pinna once a day from 24th day after the antigen induction for 2 weeks. As to the control, the only the solvent was similarly administered. The antigen induction by the test compound during administration period was conducted at 30 minutes before the administration. The thickness of the ear pinna of 14th day after the administration was measured by a dial thickness gauge.

rat mesangial cells = assay: Activity for inhibiting proliferation of rat mesangial cells (PDGF-BB, [3H]-thymidine uptake); format: cell-based; conditions: Mesangial cell, 5 ng/ml PDGF-BB, 0.5% FCS
From the text: (7) Determination of the Activity for Inhibiting Proliferation of Rat Mesangial Cells
In accordance with the method of F. Jaffer, et al. [Am. J. Pathol., Vol. 135, (1989), pages 261-269], the mesangial cells were collected. Under anesthetized condition, the kidney of a rat was aseptically enucleated and the medulla renis was cut out, then the cortex renis was pressed to a sieve (120 mesh) made of stainless steel. The fraction of cortex renis passed through the sieve was put on another sieve of 200 mesh and washed with PBS (phosphate-buffered saline), the fraction being remained on the sieve was confirmed as the glomerulus. This fraction was cultured in RPMI 1640 medium [containing 15% of fetal calf serum (FCS), and 5 μg/ml of insulin] for 4 weeks. This fraction was further subcultured twice, and the remaining cells were thought of as the mesangial cells for use of this experiment.
Determination of the activity for inhibiting proliferation of rat mesangial cells was conducted in accordance with the method of M. B. Ganz, et al. [Am. […]
Thus 2×10^4 /ml of mesangial cells were inoculated on a culture plate (48 wells, each well having the capacity of 0.5 ml), and cultured with RPMI medium (containing 15% FCS) for 3 days. […] The supernatant of the culture medium was taken up, and the amount of [^3 H]-thymidine up-taken into the cells was measured by use of scintillation counter.

[2] = 0.1% coated once a day for 2 weeks

How did the IC50 (cGMP-PDE) turn out when `O=C(Nc1ccc2c(ccn2CCCn2ccnc2)c1)c1nc2ccc(Cl)cc2n1Cc1ccccc1` [Example 3, 1-benzyl-6-chloro-2-{1-[3-(imidazol-1-yl)propyl]indol-5-ylamino-carbonyl}benzimidazole] was run?
Its IC50 is 0.01 µM.

And the IC50 (T cells)?
The IC50 was 2000 nM.

What about the “Thickness of ear pinna (×10 μm)” value [1, 2] of the same molecule?
Its value is 120.4 ± 5.3 ×10 μm.

What about the “Thickness of ear pinna (×10 μm)” value ([1]; 0.3% coated once a day for 2 weeks) of the same molecule?
The value was 105.0 ± 7.2 ×10 μm.

And the “Thickness of ear pinna (×10 μm)” value ([1]; 1.0% coated once a day for 2 weeks)?
Its value is 64.5 ± 1.6 ×10 μm.

What about the “Inhibition rate (%)” value [1, 2] of the same molecule?
Its value is 12%.

And the “Inhibition rate (%)” value ([1]; 0.3% coated once a day for 2 weeks, * p < 0.01 vs control, Dunnett's test)?
Its value is 23%.

What about the “Inhibition rate (%)” value ([1]; 1.0% coated once a day for 2 weeks, * p < 0.01 vs control, Dunnett's test) of the same molecule?
The value was 53%.

And the IC50 (rat mesangial cells)?
Its IC50 is 790 nM.
